{
  "source": "paper PMC11645656",
  "about": "“MRGPRX4 mediates phospho-drug associated pruritus in a humanized mouse model” (Science translational medicine, 2024)",
  "key": {"HTLA cells": {"system": "HTLA cells", "assay": "PRESTO-Tango β-arrestin recruitment assay, parental HTLA cells without MRGPRX4 (control, fig. S1)", "format": "cell-based", "source_text": "Supplement NIHMS2038790-supplement-table.xlsx, sheet \"fig. S1\" | column: Concentration (M)"}, "MRGPRX4 WT (S83)": {"molecular_target": "MRGPRX4 WT (S83) (Homo sapiens, UniProt Q96LA9, L83S)", "sequence (Q96LA9 whole entry L83S)": "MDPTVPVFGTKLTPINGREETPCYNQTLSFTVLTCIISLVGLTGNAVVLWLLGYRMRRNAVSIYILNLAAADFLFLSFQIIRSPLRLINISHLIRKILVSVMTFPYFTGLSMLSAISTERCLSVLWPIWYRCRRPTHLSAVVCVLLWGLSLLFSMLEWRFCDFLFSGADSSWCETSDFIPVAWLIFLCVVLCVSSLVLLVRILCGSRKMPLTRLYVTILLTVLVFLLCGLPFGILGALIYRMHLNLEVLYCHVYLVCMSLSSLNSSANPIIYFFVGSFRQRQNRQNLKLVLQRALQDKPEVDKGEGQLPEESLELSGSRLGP", "assay": "PRESTO-Tango β-arrestin recruitment assay, HTLA cells stably expressing WT (S83) MRGPRX4", "format": "cell-based", "set-up": "expressed in transfected cells", "details": "for PRESTO-Tango response (fig. S1), single replicate: HTLA::MRGPRX4; for fig. S7 response (raw signal), concentration-response: WT, single replicate", "experimental": "HTLA cells, a cell line derived from HEK293 and engineered to stably express a tTA-dependent luciferase reporter and a β-arrestin2-TEV fusion gene, were generously provided by Richard Axel's laboratory. HTLA cells were cultured in growth medium containing 2 μg/ml puromycin and 100 μg/ml hygromycin B in 5% CO2 at 37 °C. Stably MRGPRX4-expressing HTLA cells were generated by transfecting pcDNA3.1(+)-Zeo containing MRGPRX4-Tango construct (either with WT or S83L mutant sequence) into HTLA cells with Lipofectamine 3000 and selecting the successful transfected clones with Zeocin.\nHTLA cells stably expressing either WT or S83L MRGPRX4 were seeded in PDL-coated 96-well white clear bottom cell culture plates with DMEM containing 10% FBS, at a density of 35,000 cells per well and were allowed to attach to the bottom of the wells overnight. The next day, growth medium was replaced with 100 μl of serum-free medium containing the tested drugs at various concentrations, and the cells were then incubated at 37°C for 24 h. On the following day, media with drug solutions was removed and 50 μl per well of Bright-Glo™ Reagent from Bright-Glo™ Luciferase Assay System (Promega) was loaded. The plate was incubated at room temperature in the dark for 5 min, and the relative luminescence units were measured using the Flexstation-3 instrument with SoftMax®Pro 7.1 software (Molecular Devices). Dose response curves and EC50s were analyzed as described above.\nData are from at least two independent experiments, each performed in\ntriplicate, and are depicted as mean ± SEM.\narrestin2-TEV fusion gene and a tTA -dependent luciferase reporter."}, "NP2-WT mice": {"system": "NP2-WT mice", "assay": "Itch behavioral study (scratching bouts after subcutaneous nape injection) in littermate control NP2-WT mice", "format": "in vivo", "details": "30 min after injection of 50 μl 10 mM into the nape, each cell one mouse", "source_text": "Fig. 2. Phosphate monoester prodrugs induce itch in NP2-MRGPRX4+ mice through activating NP2 primary sensory neurons. (A) Mating strategy to generate NP2-X4+ mice. (B) In situ hybridization showing MRGPRX4 transcripts (magenta) in NP2-X4+ DRG as indicated by arrowheads (left) but not in littermate control NP2-WT (right). NP2 subpopulation accounts for 5% of total DRG neurons. DAPI, blue. Scale bar, 50 μm. […] . Data are expressed as mean ± SEM. *p< 0.05, **p< 0.01 and ***p< 0.001 by two-tailed unpaired Student’s t-test. ns = no statistical significance observed. (D and E) Traces of average (top, depicted as mean ± 95% confidence interval) and individual (bottom, reflected by the heatmap) calcium activity, measured by fluorescence intensity normalized to the baseline intensity (FT/F0) over time of NP2-X4+ (D) and NP2-WT (E) DRG neurons labelled with GCaMP6s (n = 110–150 neurons pooled from 3–7 independent culture vessels from 2–4 mice in each condition). 10 μM phospho-drugs and 1 mM CQ were added as indicated by the arrowheads. Neurons with FT/F0 > 1.5 after compound application were considered a positive responder. NP2-X4+: NP2-MRGPRX4+; DRG, dorsal root ganglia; CQ: chloroquine.\n. All the animals used were heterozygous unless otherwise specified. NP2-X4+ and NP2-WT littermates were generated by crossing Mrgpra3-Cre to Rosa26-lsl-MRGPRX4 as detailed previously ([15]). NP2-X4+ mice were further crossed to homozygous Rosa26-lsl-GCaMP6s to obtain NP2-WT/GCaMP6s and NP2-X4+/GCaMP6s animals. A detailed mating strategy is illustrated in fig. S5. Pirt-Cre-GCaMP6s animals were acquired by crossing Pirt-Cre to homozygous Rosa26-lsl-GCaMP6s. Pirt-Cre animals were generated through homologous recombination as indicated previously ([37]). Rosa26-lsl-GCaMP6s mouse line was provided by Dr. Dwight Bergles’ lab at the Johns Hopkins School of Medicine."}, "[1]": {"system": "NP2-X4+ mice (MRGPRX4 in Mrgpra3+ NP2 sensory neurons)", "assay": "Itch behavioral study (scratching bouts after subcutaneous nape injection) in NP2-X4+ mice", "format": "in vivo, mouse"}},
  "note": "Several values for one entry are separate records, joined by “and”; a condition that tells them apart may be missing. Equal values may be shown once.",
  "data": [
    {"smiles": "O=C1NC(c2ccccc2)(c2ccccc2)C(=O)N1COP(=O)(O)O", "note": "[Fosphenytoin]", "values": [
      {"measurement": "PRESTO-Tango response (fig. S1), single replicate", "setting": "HTLA cells; concentration 3.91e-6 M", "result": "0.004928 and 0.004598 and 0.01112 and 0.01116 and 0.003197 and 0.004271"},
      {"measurement": "PRESTO-Tango response (fig. S1), single replicate", "setting": "HTLA cells; concentration 7.81e-6 M", "result": "0.007499 and 0.005683 and 0.007727 and 0.01002 and 0.00431 and 0.008159"},
      {"measurement": "PRESTO-Tango response (fig. S1), single replicate", "setting": "HTLA cells; concentration 1.56e-5 M", "result": "0.004669 and 0.01023 and 0.009474 and 0.01705 and 0.007507 and 0.01409"},
      {"measurement": "PRESTO-Tango response (fig. S1), single replicate", "setting": "HTLA cells; concentration 3.13e-5 M", "result": "0.006626 and 0.01061 and 0.0114 and 0.01987 and 0.004604 and 0.008542"},
      {"measurement": "PRESTO-Tango response (fig. S1), single replicate", "setting": "HTLA cells; concentration 6.25e-5 M", "result": "0.01361 and 0.01504 and 0.01581 and 0.04311 and 0.006432 and 0.0129"},
      {"measurement": "PRESTO-Tango response (fig. S1), single replicate", "setting": "HTLA cells; concentration 0.00025 M", "result": "0.01688 and 0.03926 and 0.02383 and 0.08171 and 0.008888 and 0.02076"},
      {"measurement": "PRESTO-Tango response (fig. S1), single replicate", "setting": "HTLA cells; concentration 0.0005 M", "result": "0.0416 and 0.04542 and 0.03124 and 0.09673 and 0.01269 and 0.03191"},
      {"measurement": "PRESTO-Tango response (fig. S1), single replicate", "setting": "HTLA cells; concentration 0.001 M", "result": "0.01837 and 0.05513 and 0.03077 and 0.1069 and 0.01168 and 0.03953"},
      {"measurement": "PRESTO-Tango response (fig. S1), single replicate", "setting": "HTLA cells; concentration 0.002 M", "result": "0.01971 and 0.05409 and 0.03051 and 0.1054 and 0.01079 and 0.03852"},
      {"measurement": "PRESTO-Tango response (fig. S1), single replicate", "setting": "HTLA cells; concentration 0.004 M", "result": "0.01886 and 0.05018 and 0.02929 and 0.08185 and 0.01164 and 0.032"},
      {"measurement": "PRESTO-Tango response (fig. S1), single replicate", "setting": "MRGPRX4 WT (S83); concentration 1.95e-7 M", "result": "0.2272 and 0.1839 and 0.1708 and 0.08379 and 0.0626 and 0.06306"},
      {"measurement": "PRESTO-Tango response (fig. S1), single replicate", "setting": "MRGPRX4 WT (S83); concentration 3.91e-7 M", "result": "0.258 and 0.2297 and 0.204 and 0.07839 and 0.196 and 0.08224"},
      {"measurement": "PRESTO-Tango response (fig. S1), single replicate", "setting": "MRGPRX4 WT (S83); concentration 7.81e-7 M", "result": "0.5296 and 0.4272 and 0.4321 and 0.1295 and 0.1604 and 0.1155"},
      {"measurement": "PRESTO-Tango response (fig. S1), single replicate", "setting": "MRGPRX4 WT (S83); concentration 1.56e-6 M", "result": "1.193 and 1.025 and 0.8155 and 0.2489 and 0.1773 and 0.193"},
      {"measurement": "PRESTO-Tango response (fig. S1), single replicate", "setting": "MRGPRX4 WT (S83); concentration 3.13e-6 M", "result": "2.598 and 2.433 and 2.514 and 0.4404 and 0.5024 and 0.4535"},
      {"measurement": "PRESTO-Tango response (fig. S1), single replicate", "setting": "MRGPRX4 WT (S83); concentration 6.25e-6 M", "result": "5.285 and 4.4353 and 4.292 and 0.9622 and 0.8766 and 0.6627"},
      {"measurement": "PRESTO-Tango response (fig. S1), single replicate", "setting": "MRGPRX4 WT (S83); concentration 1.25e-5 M", "result": "7.96 and 6.958 and 5.919 and 1.839 and 1.437 and 1.511"},
      {"measurement": "PRESTO-Tango response (fig. S1), single replicate", "setting": "MRGPRX4 WT (S83); concentration 2.5e-5 M", "result": "10.7681 and 8.616 and 8.444 and 2.5381 and 2.199 and 2"},
      {"measurement": "PRESTO-Tango response (fig. S1), single replicate", "setting": "MRGPRX4 WT (S83); concentration 5e-5 M", "result": "10.7109 and 8.966 and 9.235 and 2.8872 and 2.833 and 2.449"},
      {"measurement": "PRESTO-Tango response (fig. S1), single replicate", "setting": "MRGPRX4 WT (S83); concentration 0.0001 M", "result": "9.427 and 8.942 and 7.727 and 3.267 and 2.882 and 2.338"},
      {"measurement": "PRESTO-Tango response (fig. S1), single replicate", "setting": "MRGPRX4 WT (S83); concentration 0.0002 M", "result": "8.979 and 8.052 and 6.854 and 2.562 and 2.3992 and 2.255"},
      {"measurement": "fig. S7 response (raw signal), concentration-response", "setting": "MRGPRX4 WT (S83); 1.95e-7 M", "result": "22724.6 and 18390.5 and 17083.6 and 8378.77 and 6259.78 and 6305.82 and 12291.8 and 11793.8 and 15486"},
      {"measurement": "fig. S7 response (raw signal), concentration-response", "setting": "MRGPRX4 WT (S83); 3.91e-7 M", "result": "25803.9 and 22965.5 and 20401.3 and 7839.11 and 19602.9 and 8224.03 and 24524.9 and 14963.1 and 12930.4"},
      {"measurement": "fig. S7 response (raw signal), concentration-response", "setting": "MRGPRX4 WT (S83); 7.81e-7 M", "result": "52955.5 and 42723 and 43213.9 and 12950.5 and 16037.6 and 11551.5 and 30971.1 and 30307.2 and 28437.7"},
      {"measurement": "fig. S7 response (raw signal), concentration-response", "setting": "MRGPRX4 WT (S83); 1.56e-6 M", "result": "119282 and 102488 and 81549.3 and 24892.1 and 17734.6 and 19298.5 and 55751 and 73836.3 and 53034.5"},
      {"measurement": "fig. S7 response (raw signal), concentration-response", "setting": "MRGPRX4 WT (S83); 3.13e-6 M", "result": "259763 and 243320 and 251368 and 44035.9 and 50243.2 and 45345.4 and 138332 and 159511 and 149195"},
      {"measurement": "fig. S7 response (raw signal), concentration-response", "setting": "MRGPRX4 WT (S83); 6.25e-6 M", "result": "528451 and 443530 and 429228 and 96221.6 and 87656.1 and 66266.7 and 291383 and 234158 and 300136"},
      {"measurement": "fig. S7 response (raw signal), concentration-response", "setting": "MRGPRX4 WT (S83); 1.25e-5 M", "result": "795954 and 695772 and 591944 and 183925 and 143683 and 151143 and 437126 and 336645 and 507439"},
      {"measurement": "fig. S7 response (raw signal), concentration-response", "setting": "MRGPRX4 WT (S83); 2.5e-5 M", "result": "1076811 and 861577 and 844388 and 253810 and 219862 and 200044 and 648692 and 547623 and 531932"},
      {"measurement": "fig. S7 response (raw signal), concentration-response", "setting": "MRGPRX4 WT (S83); 5e-5 M", "result": "1071085 and 896572 and 923510 and 288720 and 283304 and 244853 and 667677 and 558954 and 627391"},
      {"measurement": "fig. S7 response (raw signal), concentration-response", "setting": "MRGPRX4 WT (S83); 0.0001 M", "result": "942731 and 894246 and 772701 and 326668 and 288202 and 233769 and 534832 and 581310 and 583017"},
      {"measurement": "fig. S7 response (raw signal), concentration-response", "setting": "MRGPRX4 WT (S83); 0.0002 M", "result": "897926 and 805208 and 685441 and 256156 and 239920 and 225546 and 318639 and 44935"},
      {"measurement": "Scratching bouts of individual animals", "setting": "NP2-WT mice", "result": "33 and 0 and 2 and 9 and 5 and 14 and 6 and 20 and 4"},
      {"measurement": "Scratching / itch behavior, NP2-X4+ mice vs WT littermates", "setting": "[1]; 50 μl 10 mM nape injection, 30 min", "result": "significantly increased scratching behavior"},
      {"measurement": "Scratching bouts of individual animals", "setting": "[1]; NP2-X4+, 30 min after injection of 50 μl 10 mM into the nape, each cell one mouse", "result": "32 and 55 and 37 and 89 and 49 and 39 and 73 and 83 and 25 and 94"}
    ]}
  ]
}
